pKd: −log10 of the molar value.
Assays:
[1] = target: T1, RANKL (Homo sapiens, UniProt O14788); experiment: SPR kinetics (Biacore S200), RANKL amine-coupled on CM5 chip; assay type: binding
T1 construct: gene TNFSF11; extracellular domain
T1 sequence (O14788 69-317 limits assumed): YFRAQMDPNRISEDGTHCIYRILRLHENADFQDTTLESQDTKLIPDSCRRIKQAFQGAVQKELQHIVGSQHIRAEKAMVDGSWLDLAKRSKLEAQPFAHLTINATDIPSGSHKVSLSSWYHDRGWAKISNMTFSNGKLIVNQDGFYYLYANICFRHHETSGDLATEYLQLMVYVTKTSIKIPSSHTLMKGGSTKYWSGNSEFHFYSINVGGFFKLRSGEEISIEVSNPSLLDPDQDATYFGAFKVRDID

[2] = target: T2, RANK (Homo sapiens, UniProt Q9Y6Q6); experiment: SPR kinetics (Biacore S200), RANK amine-coupled on CM5 chip; assay type: binding
T2 construct: gene TNFRSF11A; extracellular domain
T2 sequence (Q9Y6Q6 30-212 limits assumed): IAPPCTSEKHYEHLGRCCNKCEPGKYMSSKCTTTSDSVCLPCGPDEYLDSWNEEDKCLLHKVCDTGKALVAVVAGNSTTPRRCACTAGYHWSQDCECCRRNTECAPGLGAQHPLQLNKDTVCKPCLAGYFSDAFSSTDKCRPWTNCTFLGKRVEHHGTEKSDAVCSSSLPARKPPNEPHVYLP

Molecule `COc1cccc2c1C[C@@H]1c3c(cc4c(c3-2)OCO4)CCN1C` [SA, Stephanine] has a pKd [1] of 4.12 and a pKd [2] of 5.43.
